Experimental data as given in patent publication US8288428B2, “Compounds as cannabinoid receptor ligands” (Abbott Laboratories, priority 2009, dated 2012).
Where two headings read alike, the source gives them in different places.

Assays:
human CB2 receptors = biological target: T1, human CB2 receptors (Homo sapiens, UniProt P34972); experiment: human CB2 radioligand binding assay
T1 construct: expressed in transfected cells; membrane preparation
Description: (§1) (i) In Vitro Methods—CB2 and CB1 Radioligand Binding Assays:
(§2) The CB1 and CB2 radioligand binding assays described herein are utilized to ascertain the selectivity of compounds of the present application for binding to CB2 relative to CB1 receptors.
(§3) HEK293 cells stably expressing human CB2 receptors were grown until a confluent monolayer was formed. Briefly, the cells were harvested and homogenized in TE buffer (50 mM Tris-HCl, 1 mM MgCl2, and 1 mM EDTA) using a polytron for 2×10 second bursts in the presence of protease inhibitors, followed by centrifugation at 45,000×g for 20 minutes. The final membrane pellet was re-homogenized in storage buffer (50 mM Tris-HCl, 1 mM MgCl2, and 1 mM EDTA and 10% sucrose) and frozen at −78° C. until used. Saturation binding reactions were initiated by the addition of membrane preparation (protein concentration of 5 μg/well for human CB2) into wells of a deep well plate containing [^3H]CP-55,940 (120 Ci/mmol, a nonselective CB agonist commercially available from Tocris) in assay buffer (50 mM Tris, 2.5 mM EDTA, 5 mM MgCl2, and 0.5 mg/mL fatty acid free BSA, pH 7.4). After 90 min incubation at 30° C., binding reaction was terminated by the addition of 300 μL/well of cold assay buffer followed by rapid vacuum filtration through a UniFilter-96 GF/C filter plates (pre-soaked in 1 mg/mL BSA for 2 hours). The bound activity was counted in a TopCount using Microscint-20. Saturation experiments were conducted with twelve concentrations of [^3H]CP-55,940 ranging from 0.01 to 8 nM. Competition experiments were conducted with 0.5 nM [^3H]CP-55,940 and five concentrations (0.01 nM to 10 μM) of displacing ligands. The addition of 10 μM unlabeled CP-55,940 (Tocris, Ellisville, Mo.) was used to assess nonspecific binding.

rat CB2 receptors = biological target: T2, rat CB2 receptors (Rattus norvegicus, UniProt Q9QZN9); experiment: rat CB2 radioligand binding assay
T2 construct: expressed in transfected cells; membrane preparation
T2 sequence (Q9QZN9 1-360): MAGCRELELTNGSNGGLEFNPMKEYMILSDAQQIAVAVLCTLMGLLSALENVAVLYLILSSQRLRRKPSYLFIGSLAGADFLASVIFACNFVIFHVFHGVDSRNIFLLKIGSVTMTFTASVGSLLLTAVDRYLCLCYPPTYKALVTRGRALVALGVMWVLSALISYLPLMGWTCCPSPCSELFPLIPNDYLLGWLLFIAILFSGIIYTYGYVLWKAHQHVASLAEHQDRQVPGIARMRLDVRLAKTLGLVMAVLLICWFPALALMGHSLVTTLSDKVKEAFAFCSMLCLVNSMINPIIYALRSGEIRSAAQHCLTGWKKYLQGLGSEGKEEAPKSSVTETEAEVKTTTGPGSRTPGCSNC
Description: as §1, §2
as §3, with “expressing rat” for “expressing human”, “of 20” for “of 5”, “for rat” for “for human”, “After 45” for “After 90”, “concentrations of displacing ligands selected from the range of 0.01” for “concentrations (0.01”, “10 μM.” for “10 μM) of displacing ligands.”

[1] = competition with 0.5 nM [3H]CP-55,940, HEK293 membranes expressing rat CB2, read-out: rat CB2 binding (Ki)
[2] = competition with 0.5 nM [3H]CP-55,940, HEK293 membranes expressing human CB2, read-out: human CB2 binding (Ki)

T1 sequence (P34972 whole entry): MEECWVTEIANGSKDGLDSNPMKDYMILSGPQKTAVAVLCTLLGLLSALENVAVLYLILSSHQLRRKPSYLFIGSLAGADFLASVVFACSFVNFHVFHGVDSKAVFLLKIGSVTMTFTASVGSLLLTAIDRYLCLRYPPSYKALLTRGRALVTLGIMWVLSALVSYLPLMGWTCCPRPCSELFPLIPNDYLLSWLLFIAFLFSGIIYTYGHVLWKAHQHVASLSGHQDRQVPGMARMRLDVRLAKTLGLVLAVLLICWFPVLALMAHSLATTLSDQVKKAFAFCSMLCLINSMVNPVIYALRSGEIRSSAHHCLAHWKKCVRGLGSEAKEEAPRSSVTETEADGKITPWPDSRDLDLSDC

| Compound | Ki (human CB2 receptors) | Ki (rat CB2 receptors) | Ki (rat CB2 receptors; [1]) | Ki (human CB2 receptors; [2]) |
| --- | --- | --- | --- | --- |
| Cn1c(C(C)(C)C)c/c(=N\C(=O)c2cc(C(F)(F)F)ccc2CCC(C)(C)O)n1CC1CC1 [Example 4, N-[(3E)-5-tert-butyl-2-(cyclopropylmethyl)-1-methyl-1,2-dihydro-3H-pyrazol-3-ylidene]-2-(3-hydroxy-3-methylbutyl)-5-(trifluoromethyl)benzamide] | 151 nM | 121 nM | – | – |
| CCCCn1/c(=N/C(=O)c2cc(C(F)(F)F)ccc2CN2CC[C@@H](O)C2)cc(C(C)(C)C)n1C [Example 13, N-[(3E)-2-butyl-5-tert-butyl-1-methyl-1,2-dihydro-3H-pyrazol-3-ylidene]-2-{[(3R)-3-hydroxypyrrolidin-1-yl]methyl}-5-(trifluoromethyl)benzamide] | – | – | 453 nM | – |
| CCCn1/c(=N/C(=O)c2cc(C(F)(F)F)ccc2/C=C/C(C)(C)O)cc(C(C)(C)C)n1C [Example 5, N-[(3E)-5-tert-butyl-1-methyl-2-propyl-1,2-dihydro-3H-pyrazol-3-ylidene]-2-[(1E)-3-hydroxy-3-methylbut-1-enyl]-5-(trifluoromethyl)benzamide] | 277 nM | 89.6 nM | – | – |
| CCCCCn1/c(=N/C(=O)c2cc(C(F)(F)F)ccc2CCC(C)(C)O)cc(C(C)(C)C)n1C [Example 2, N-[(3E)-5-tert-butyl-1-methyl-2-pentyl-1,2-dihydro-3H-pyrazol-3-ylidene]-2-(3-hydroxy-3-methylbutyl)-5-(trifluoromethyl)benzamide] | 32.2 nM | 25 nM | – | – |
| CCCCn1/c(=N/C(=O)c2cc(C(F)(F)F)ccc2CCC(=O)OCC)cc(C(C)(C)C)n1C [Example 11, ethyl 3-[2-({[(3E)-2-butyl-5-tert-butyl-1-methyl-1,2-dihydro-3H-pyrazol-3-ylidene]amino}carbonyl)-4-(trifluoromethyl)phenyl]propanoate] | 53.3 nM | 32.5 nM | – | – |
| CCCCn1nc(C(C)(C)C)s/c1=N\C(=O)c1cc(C(F)(F)F)ccc1CO [Example 20, N-[(2Z)-3-butyl-5-tert-butyl-1,3,4-thiadiazol-2(3H)-ylidene]-2-(hydroxymethyl)-5-(trifluoromethyl)benzamide] | 1.89 nM | 0.57 nM | – | – |
| CCCCn1/c(=N/C(=O)c2cc(C(F)(F)F)ccc2CN2CC(O)C2)cc(C(C)(C)C)n1C [Example 24, N-[(3E)-2-butyl-5-tert-butyl-1-methyl-1,2-dihydro-3H-pyrazol-3-ylidene]-2-[(3-hydroxyazetidin-1-yl)methyl]-5-(trifluoromethyl)benzamide] | – | 87.5 nM | – | 117 nM |
| COCCCn1/c(=N/C(=O)c2cc(C(F)(F)F)ccc2CCC(C)(C)O)cc(C(C)(C)C)n1C [Example 15, N-[(3E)-5-tert-butyl-2-(3-methoxypropyl)-1-methyl-1,2-dihydro-3H-pyrazol-3-ylidene]-2-(3-hydroxy-3-methylbutyl)-5-(trifluoromethyl)benzamide] | – | – | 220 nM | – |
| CCCCn1/c(=N/C(=O)c2cc(C(F)(F)F)ccc2CN2CC(C)(O)C2)cc(C(C)(C)C)n1C [Example 12, N-[(3E)-2-butyl-5-tert-butyl-1-methyl-1,2-dihydro-3H-pyrazol-3-ylidene]-2-[(3-hydroxy-3-methylazetidin-1-yl)methyl]-5-(trifluoromethyl)benzamide] | – | – | 177 nM | 142 nM |
| Cn1c(C(C)(C)C)c/c(=N\C(=O)c2cc(C(F)(F)F)ccc2CCC(C)(C)O)n1CC1CCC1 [Example 7, N-[(3E)-5-tert-butyl-2-(cyclobutylmethyl)-1-methyl-1,2-dihydro-3H-pyrazol-3-ylidene]-2-(3-hydroxy-3-methylbutyl)-5-(trifluoromethyl)benzamide] | 20.8 nM | 17.2 nM | – | – |
| CCCCn1nc(C(C)(C)C)s/c1=N\C(=O)c1cc(C(F)(F)F)ccc1CN1CC[C@H](O)C1 [Example 18, N-[(2Z)-3-butyl-5-tert-butyl-1,3,4-thiadiazol-2(3H)-ylidene]-2-{[(3S)-3-hydroxypyrrolidin-1-yl]methyl}-5-(trifluoromethyl)benzamide] | 14.9 nM | 1.59 nM | – | – |
| CCCCn1nc(C(C)(C)C)s/c1=N\C(=O)c1cc(C(F)(F)F)ccc1CN1CC(C(=O)OC)C1 [Example 21, methyl 1-[2-({[(2Z)-3-butyl-5-tert-butyl-1,3,4-thiadiazol-2(3H)-ylidene]amino}carbonyl)-4-(trifluoromethyl)benzyl]azetidine-3-carboxylate] | 3.93 nM | 1.79 nM | – | – |
| Cn1c(C(C)(C)C)c/c(=N\C(=O)c2cc(C(F)(F)F)ccc2/C=C/C(C)(C)O)n1CC1CCC1 [Example 6, N-[(3E)-5-tert-butyl-2-(cyclobutylmethyl)-1-methyl-1,2-dihydro-3H-pyrazol-3-ylidene]-2-[(1E)-3-hydroxy-3-methylbut-1-enyl]-5-(trifluoromethyl)benzamide] | 10.9 nM | 3.29 nM | – | – |
| CCCCn1nc(C(C)(C)C)s/c1=N\C(=O)c1cc(C(F)(F)F)ccc1CN1CC[C@@H](O)C1 [Example 19, N-[(2Z)-3-butyl-5-tert-butyl-1,3,4-thiadiazol-2(3H)-ylidene]-2-{[(3R)-3-hydroxypyrrolidin-1-yl]methyl}-5-(trifluoromethyl)benzamide] | 15.3 nM | 3.85 nM | – | – |
| Cn1c(C(C)(C)C)c/c(=N\C(=O)c2cc(C(F)(F)F)ccc2CN2CC(C)(O)C2)n1CC1CC1 [Example 10, N-[(3E)-5-tert-butyl-2-(cyclopropylmethyl)-1-methyl-1,2-dihydro-3H-pyrazol-3-ylidene]-2-[(3-hydroxy-3-methylazetidin-1-yl)methyl]-5-(trifluoromethyl)benzamide] | 186 nM | 108 nM | – | – |
| Cn1c(C(C)(C)C)c/c(=N\C(=O)c2cc(C(F)(F)F)ccc2/C=C/C(C)(C)O)n1CC1CC1 [Example 3, N-[(3E)-5-tert-butyl-2-(cyclopropylmethyl)-1-methyl-1,2-dihydro-3H-pyrazol-3-ylidene]-2-[(1E)-3-hydroxy-3-methylbut-1-enyl]-5-(trifluoromethyl)benzamide] | 41.7 nM | 37.2 nM | – | – |
| CCCCn1/c(=N/C(=O)c2cc(C(F)(F)F)ccc2CCC(C)(C)O)cc(C(C)(C)C)n1C [Example 1, N-[(3E)-2-butyl-5-tert-butyl-1-methyl-1,2-dihydro-3H-pyrazol-3-ylidene]-2-(3-hydroxy-3-methylbutyl)-5-(trifluoromethyl)benzamide] | – | – | 102 nM | 133 nM |
| CCCCn1nc(C(C)(C)C)s/c1=N\C(=O)c1cc(C(F)(F)F)ccc1CN1CC(O)C1 [Example 16, N-[(2Z)-3-butyl-5-tert-butyl-1,3,4-thiadiazol-2(3H)-ylidene]-2-[(3-hydroxyazetidin-1-yl)methyl]-5-(trifluoromethyl)benzamide] | 1.63 nM | 0.8 nM | – | – |
| CCCCn1/c(=N/C(=O)c2cc(C(F)(F)F)ccc2COCC(C)(C)O)cc(C(C)(C)C)n1C [Example 25, N-[(3E)-2-butyl-5-tert-butyl-1-methyl-1,2-dihydro-3H-pyrazol-3-ylidene]-2-[(2-hydroxy-2-methylpropoxy)methyl]-5-(trifluoromethyl)benzamide] | 25 nM | 17.8 nM | – | – |
